Test [1] has as its target BRM (Homo sapiens, UniProt P51531). The experiment in a line: ATPase catalytic activity assay (ADP-Glo), BRM. The following applies: 30 nM BRM, 400 μM ATP; for IC50: BRM ATPase: IC50 (uM). For orientation: ADP-Glo first removes unused ATP, then detects ADP through luciferase.
Method: (§1) The ATPase catalytic activity of BRM or BRG-1 was measured by an in vitro biochemical assay using ADP-Glo™ (Promega, V9102). The ADP-Glo™ kinase assay is performed in two steps once the reaction is complete. The first step is to deplete any unconsumed ATP in the reaction. The second step is to convert the reaction product ADP to ATP, which will be utilized by the luciferase to generate luminesce and be detected by a luminescence reader, such as Envision.
(§2) Then following addition of 5 μL of ADP-Glo™ Reagent provided in the kit, the reaction incubates at room temperature for 40 minutes. Then 10 μL of Kinase Detection Reagent provided in the kit is added to convert ADP to ATP, and the reaction incubates at room temperature for 60 minutes. Finally, luminescence measurement is collected with a plate-reading luminometer, such as Envision.
Test [2] concerns the target BRG-1 (Homo sapiens, UniProt P51532). As to the kind of experiment: ATPase catalytic activity assay (ADP-Glo), BRG-1. The following applies: for Emax: 1 h, read-out: BRG1 Max % Inhibition, ADP-Glo, 30 nM BRG-1, 400 μM ATP.
Method: as §1, §2

Sequence of BRM (P51531 whole entry): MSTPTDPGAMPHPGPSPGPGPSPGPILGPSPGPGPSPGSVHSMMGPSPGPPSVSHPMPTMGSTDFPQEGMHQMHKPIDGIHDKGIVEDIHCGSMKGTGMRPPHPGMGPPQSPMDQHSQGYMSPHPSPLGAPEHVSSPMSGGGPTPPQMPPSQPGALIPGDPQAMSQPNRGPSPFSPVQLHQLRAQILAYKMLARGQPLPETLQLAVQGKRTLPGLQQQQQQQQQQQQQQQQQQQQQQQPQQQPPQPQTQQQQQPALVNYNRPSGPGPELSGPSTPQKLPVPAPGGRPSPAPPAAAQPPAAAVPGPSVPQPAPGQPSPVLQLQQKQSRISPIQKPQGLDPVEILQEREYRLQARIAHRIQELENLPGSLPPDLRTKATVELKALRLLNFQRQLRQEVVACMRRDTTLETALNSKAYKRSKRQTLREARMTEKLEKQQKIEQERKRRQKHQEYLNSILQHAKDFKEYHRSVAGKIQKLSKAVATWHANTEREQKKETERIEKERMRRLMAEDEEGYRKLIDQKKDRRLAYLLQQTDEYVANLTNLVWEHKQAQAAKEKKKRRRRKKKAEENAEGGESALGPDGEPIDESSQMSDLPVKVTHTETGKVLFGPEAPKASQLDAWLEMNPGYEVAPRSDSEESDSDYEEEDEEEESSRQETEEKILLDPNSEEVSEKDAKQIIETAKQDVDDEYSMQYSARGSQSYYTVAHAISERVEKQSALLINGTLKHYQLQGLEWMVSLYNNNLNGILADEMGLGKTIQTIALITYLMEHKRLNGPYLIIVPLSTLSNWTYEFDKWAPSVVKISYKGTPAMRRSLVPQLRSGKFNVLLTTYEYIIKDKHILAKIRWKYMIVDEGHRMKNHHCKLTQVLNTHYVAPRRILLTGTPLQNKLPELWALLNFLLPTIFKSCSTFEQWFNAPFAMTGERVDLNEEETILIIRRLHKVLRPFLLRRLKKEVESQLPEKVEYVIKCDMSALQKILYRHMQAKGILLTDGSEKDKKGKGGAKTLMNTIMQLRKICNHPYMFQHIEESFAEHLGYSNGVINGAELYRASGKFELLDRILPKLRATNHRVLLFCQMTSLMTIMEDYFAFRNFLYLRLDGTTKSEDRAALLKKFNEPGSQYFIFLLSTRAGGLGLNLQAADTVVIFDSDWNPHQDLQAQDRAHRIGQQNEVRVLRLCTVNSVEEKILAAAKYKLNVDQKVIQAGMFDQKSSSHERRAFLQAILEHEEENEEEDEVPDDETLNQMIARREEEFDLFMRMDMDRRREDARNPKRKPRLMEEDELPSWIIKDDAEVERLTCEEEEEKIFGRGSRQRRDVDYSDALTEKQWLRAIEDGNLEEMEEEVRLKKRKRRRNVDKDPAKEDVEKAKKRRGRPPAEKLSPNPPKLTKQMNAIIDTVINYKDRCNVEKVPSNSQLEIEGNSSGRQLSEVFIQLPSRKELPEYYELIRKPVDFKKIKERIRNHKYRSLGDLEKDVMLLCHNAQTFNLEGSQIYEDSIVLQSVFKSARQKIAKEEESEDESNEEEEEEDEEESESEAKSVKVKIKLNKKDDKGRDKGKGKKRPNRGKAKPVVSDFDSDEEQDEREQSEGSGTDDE
Sequence of BRG-1 (P51532 whole entry): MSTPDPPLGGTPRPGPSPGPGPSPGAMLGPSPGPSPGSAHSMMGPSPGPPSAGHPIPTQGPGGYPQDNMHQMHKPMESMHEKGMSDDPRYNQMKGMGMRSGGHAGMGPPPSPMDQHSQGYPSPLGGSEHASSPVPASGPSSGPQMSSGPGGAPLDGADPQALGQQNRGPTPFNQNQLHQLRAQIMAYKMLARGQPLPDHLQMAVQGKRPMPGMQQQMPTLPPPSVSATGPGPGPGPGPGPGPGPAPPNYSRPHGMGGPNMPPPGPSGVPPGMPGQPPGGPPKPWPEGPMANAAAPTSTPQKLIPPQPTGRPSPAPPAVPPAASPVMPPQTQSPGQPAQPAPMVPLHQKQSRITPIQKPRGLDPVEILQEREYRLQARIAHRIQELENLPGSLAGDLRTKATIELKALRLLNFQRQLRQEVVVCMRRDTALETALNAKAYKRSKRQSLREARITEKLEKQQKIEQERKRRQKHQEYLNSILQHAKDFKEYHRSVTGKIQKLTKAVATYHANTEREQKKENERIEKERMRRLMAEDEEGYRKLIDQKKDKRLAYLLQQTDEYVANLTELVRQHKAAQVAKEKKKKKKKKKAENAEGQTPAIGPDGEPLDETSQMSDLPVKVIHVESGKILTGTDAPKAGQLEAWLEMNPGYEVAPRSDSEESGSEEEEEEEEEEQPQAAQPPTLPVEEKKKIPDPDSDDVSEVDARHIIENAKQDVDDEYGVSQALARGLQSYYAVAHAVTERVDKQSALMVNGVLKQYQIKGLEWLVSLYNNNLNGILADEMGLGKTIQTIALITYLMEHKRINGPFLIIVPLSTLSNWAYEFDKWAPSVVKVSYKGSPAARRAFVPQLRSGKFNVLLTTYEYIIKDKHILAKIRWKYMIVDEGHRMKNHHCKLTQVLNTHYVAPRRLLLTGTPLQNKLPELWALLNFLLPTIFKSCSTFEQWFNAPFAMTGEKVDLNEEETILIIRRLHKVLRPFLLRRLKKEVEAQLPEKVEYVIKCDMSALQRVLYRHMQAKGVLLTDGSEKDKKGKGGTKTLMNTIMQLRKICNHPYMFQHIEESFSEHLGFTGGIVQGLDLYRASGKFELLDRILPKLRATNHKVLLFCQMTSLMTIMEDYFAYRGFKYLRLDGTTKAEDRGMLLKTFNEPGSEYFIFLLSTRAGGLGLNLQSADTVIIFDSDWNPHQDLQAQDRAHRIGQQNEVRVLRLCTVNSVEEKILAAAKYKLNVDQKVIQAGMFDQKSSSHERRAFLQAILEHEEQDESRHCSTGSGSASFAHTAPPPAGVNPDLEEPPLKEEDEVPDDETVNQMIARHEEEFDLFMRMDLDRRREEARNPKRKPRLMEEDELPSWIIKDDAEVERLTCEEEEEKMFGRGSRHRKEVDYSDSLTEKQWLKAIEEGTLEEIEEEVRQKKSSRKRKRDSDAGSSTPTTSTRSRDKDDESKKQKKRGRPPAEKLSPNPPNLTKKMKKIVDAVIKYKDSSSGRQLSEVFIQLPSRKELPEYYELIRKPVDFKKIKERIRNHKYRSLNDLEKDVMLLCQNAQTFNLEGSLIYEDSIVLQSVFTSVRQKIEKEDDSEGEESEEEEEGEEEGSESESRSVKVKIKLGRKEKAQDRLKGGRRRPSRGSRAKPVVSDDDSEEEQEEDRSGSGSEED

By IC50 is commonly meant the point on the concentration scale where inhibition reaches its midpoint. High values mean lower potency, low ones higher potency. For the compound `COC1CCN(c2nccc(-c3ccc4cnc(CNC(=O)c5ccc6c(c5)[C@](C)(C#N)COC6)cc4n3)n2)C1` (some centres unmarked) [Compound 422], in test [1], the “BRM Max % Inhibition” value stood at 99% and the IC50 was less than 0.1 µM. In test [2], the IC50 was less than 100 nM and the Emax was found to be 97%.

Take `COc1cncc(-c2ccc3cnc(CNC(=O)c4ccc5c(c4)[C@](C)(C#N)COC5)cc3n2)n1` [Compound 423]: in test [1], the “BRM Max % Inhibition” value is 98% and the IC50 was less than 0.1 µM. Also, in test [2], the IC50 was 100 to 500 nM and the Emax is 89%.

Consider `CN(C)c1nccc(-c2ccc3cnc(CNC(=O)c4ccc5c(c4)[C@](C)(C#N)COC5)cc3n2)n1` [Compound 424], for which, in test [1], the “BRM Max % Inhibition” value was 99% and the IC50 was less than 0.1 µM. Also, in test [2], the IC50 was less than 100 nM and the Emax stood at 96%.

For the compound `C[C@@]1(C#N)COCc2ccc(C(=O)NCc3cc4nc(-n5cc(F)c(N6CCC6)n5)ccc4cn3)cc21` [Compound 425], in test [1], the “BRM Max % Inhibition” value is on record as 98% and the IC50 was less than 0.1 µM. Besides, in test [2], the IC50 was 100 to 500 nM and the Emax stood at 93%.

As for `C[C@@]1(C#N)COCc2ccc(C(=O)NCc3cc4nc(-n5ccc(N6CCC6)n5)ccc4cn3)cc21` [Compound 426], in test [1], the “BRM Max % Inhibition” value amounted to 97% and the IC50 was in the range of 0.1 to 0.5 µM. In addition, in test [2], the IC50 lay in the range of 500 to 1000 nM and the Emax worked out at 78%.

Consider `CN1Cc2nc(-c3ccc4cnc(CNC(=O)c5ccc6c(c5)[C@](C)(C#N)COC6)cc4n3)ccc2C1=O` [Compound 427], for which, in test [1], the “BRM Max % Inhibition” value stood at 99% and the IC50 was less than 0.1 µM. Also, in test [2], the half-maximal inhibitory concentration (IC50) is 100 to 500 nM and the Emax was 87%.

For `C[C@@]1(F)COCc2c(F)cc(C(=O)NCc3cc4nc(-c5ccccc5)ccc4cn3)cc21` [Compound 428], in test [1], the “BRM Max % Inhibition” value is reported as 97% and the IC50 was 0.1 to 0.5 µM. Further, in test [2], the IC50 fell in the range of 500 to 1000 nM and the Emax is 65%.

As for `C[C@@]1(F)COCc2ccc(C(=O)NCc3cc4nc(-c5ccnc(N6CCC6)n5)ccc4cn3)cc21` [Compound 429], in test [1], the “BRM Max % Inhibition” value was 99% and the IC50 was less than 0.1 µM. For the same compound, in test [2], the IC50 fell in the range of 100 to 500 nM and the Emax came out at 93%.

`COC1CN(c2nccc(-c3ccc4cnc(CNC(=O)c5ccc6c(c5)[C@](C)(C#N)COC6)cc4n3)n2)C1` [Compound 430]: in test [1], the “BRM Max % Inhibition” value was 100% and the IC50 is less than 0.1 µM. In test [2], the IC50 lay within 100 to 500 nM and the Emax was found to be 92%.

`C[C@@]1(C#N)COCc2ccc(C(=O)NCc3cc4nc(-c5ccccc5OCCO)ccc4cn3)cc21` [Compound 431]: in test [1], the “BRM Max % Inhibition” value is 86% and the IC50 was 0.1 to 0.5 µM. Besides, in test [2], the IC50 lay within 500 to 1000 nM and the Emax was 53%.

In the case of `COc1nccc(-c2ccc3cnc(CNC(=O)c4ccc5c(c4)[C@](C)(C#N)COC5)cc3n2)c1F` [Compound 432], in test [1], the “BRM Max % Inhibition” value is 98% and the IC50 is less than 0.1 µM. Further, in test [2], the IC50 lay within 100 to 500 nM and the Emax was 88%.

For `Cc1nn(-c2ccc3cnc(CNC(=O)c4ccc5c(c4)[C@](C)(C#N)COC5)cc3n2)cc1F` [Compound 433], in test [1], the “BRM Max % Inhibition” value is reported as 96% and the IC50 lay within 0.1 to 0.5 µM. Also, in test [2], the half-inhibitory concentration (IC50) was 500 to 1000 nM and the Emax was 59%.

On to `Cn1ccc2c(F)cc(-c3ccc4cnc(CNC(=O)c5ccc6c(c5)[C@](C)(C#N)COC6)cc4n3)cc2c1=O` [Compound 434], for which, in test [1], the “BRM Max % Inhibition” value came to 100% and the IC50 is less than 0.1 µM. Also, in test [2], the IC50 was less than 100 nM and the Emax worked out at 92%.

Take `C[C@@]1(C#N)COCc2ccc(C(=O)NCc3cc4nc(-c5cncc(N6CCOCC6)n5)ccc4cn3)cc21` [Compound 435]: in test [1], the “BRM Max % Inhibition” value stood at 100% and the IC50 was less than 0.1 µM. Moreover, in test [2], the IC50 lay within 100 to 500 nM and the Emax is 93%.

As to `C[C@@]1(C#N)COCc2ccc(C(=O)NCc3cc4nc(-c5cnc6cccnn56)ccc4cn3)cc21` [Compound 436], in test [1], the “BRM Max % Inhibition” value is recorded as 100% and the IC50 was less than 0.1 µM. Also, in test [2], the IC50 was in the range of 100 to 500 nM and the Emax turned out to be 85%.

Turning to `C[C@@]1(C#N)COCc2ccc(C(=O)NCc3cc4nc(-c5ccnc(N6CCC6)c5)ccc4cn3)cc21` [Compound 437], in test [1], the “BRM Max % Inhibition” value is reported as 99% and the half-maximal inhibitory concentration (IC50) was less than 0.1 µM. In test [2], the IC50 lay within 100 to 500 nM and the Emax came to 87%.

In the case of `C[C@@]1(C#N)COCc2ccc(C(=O)NCc3cc4nc(-c5ccncc5)sc4cn3)cc21` [Compound 438], in test [1], the “BRM Max % Inhibition” value worked out at 84% and the IC50 lay within 0.1 to 0.5 µM. Further, in test [2], the half-inhibitory concentration (IC50) was greater than 1000 nM and the Emax amounted to 28%.

Regarding `C[C@@]1(C#N)COCc2ccc(C(=O)NCc3cc4nc(-c5cccnc5)sc4cn3)cc21` [Compound 439], in test [1], the “BRM Max % Inhibition” value stood at 88% and the IC50 was 0.1 to 0.5 µM. In test [2], the IC50 was greater than 1000 nM and the Emax turned out to be 36%.

Regarding `C[C@@]1(C#N)COCc2ccc(C(=O)NCc3cc4nc(-c5ccccn5)sc4cn3)cc21` [Compound 440], in test [1], the “BRM Max % Inhibition” value turned out to be 88% and the IC50 lay in the range of 0.1 to 0.5 µM. Further, in test [2], the IC50 was greater than 1000 nM and the Emax was 40%.

`C[C@@]1(C#N)COCc2ccc(C(=O)NCc3cc4nc(-c5cncc(N6CCC6)c5)ccc4cn3)cc21` [Compound 441]: in test [1], the “BRM Max % Inhibition” value stood at 97% and the IC50 fell in the range of 0.1 to 0.5 µM. Further, in test [2], the 50% inhibitory concentration (IC50) is 500 to 1000 nM and the Emax came to 80%.

As to `COc1cc(-c2ccc3cnc(CNC(=O)c4ccc5c(c4)[C@](C)(C#N)COC5)cc3n2)nc(N2CCC2)n1` [Compound 442], in test [1], the “BRM Max % Inhibition” value worked out at 96% and the IC50 was less than 0.1 µM. Further, in test [2], the IC50 was 500 to 1000 nM and the Emax stood at 75%.

`Cn1ccc2nc(-c3ccc4cnc(CNC(=O)c5ccc6c(c5)[C@](C)(C#N)COC6)cc4n3)sc2c1=O` [Compound 443]: in test [1], the “BRM Max % Inhibition” value is on record as 96% and the half-maximal inhibitory concentration (IC50) fell in the range of 0.1 to 0.5 µM. Also, in test [2], the half-inhibitory concentration (IC50) fell in the range of 100 to 500 nM and the Emax was determined as 82%.

Regarding `Cc1nccc(-c2ccc3cnc(CNC(=O)c4ccc5c(c4)[C@](C)(C#N)COC5)cc3n2)n1` [Compound 444], in test [1], the “BRM Max % Inhibition” value turned out to be 93% and the IC50 was in the range of 0.1 to 0.5 µM. Also, in test [2], the 50% inhibitory concentration (IC50) fell in the range of 500 to 1000 nM and the Emax worked out at 67%.

Regarding `COC1CN(C(=O)c2cccc(-c3ccc4cnc(CNC(=O)c5ccc6c(c5)[C@](C)(C#N)COC6)cc4n3)c2)C1` [Compound 445], in test [1], the “BRM Max % Inhibition” value is recorded as 96% and the IC50 fell in the range of 0.1 to 0.5 µM. Moreover, in test [2], the half-inhibitory concentration (IC50) lay in the range of 500 to 1000 nM and the Emax worked out at 72%.

Consider `COc1cc(-c2ccc3cnc(CNC(=O)c4ccc5c(c4)[C@](C)(C#N)COC5)cc3n2)c(F)cn1` [Compound 446], for which, in test [1], the “BRM Max % Inhibition” value worked out at 87% and the IC50 lay in the range of 0.1 to 0.5 µM. Moreover, in test [2], the IC50 is greater than 1000 nM and the Emax turned out to be 44%.

For `C[C@@]1(C#N)COCc2ccc(C(=O)NCc3cc4nc(-c5ccn6nccc6n5)ccc4cn3)cc21` [Compound 447], in test [1], the “BRM Max % Inhibition” value was determined as 95% and the IC50 fell in the range of 0.1 to 0.5 µM. In addition, in test [2], the 50% inhibitory concentration (IC50) lay in the range of 500 to 1000 nM and the Emax was found to be 84%.

For `Cn1ncc2ccc(-c3ccc4cnc(CNC(=O)c5ccc6c(c5)[C@](C)(C#N)COC6)cc4n3)cc2c1=O` [Compound 448], in test [1], the “BRM Max % Inhibition” value was found to be 97% and the IC50 was less than 0.1 µM. In addition, in test [2], the half-maximal inhibitory concentration (IC50) is 100 to 500 nM and the Emax came to 93%.

For `C[C@@]1(C#N)COCc2ccc(C(=O)NCc3cc4nc(-c5cc(F)c(=O)n(C(F)F)c5)ccc4cn3)cc21` [Compound 449], in test [1], the “BRM Max % Inhibition” value was found to be 92% and the IC50 was 0.1 to 0.5 µM. Moreover, in test [2], the IC50 is greater than 1000 nM and the Emax amounted to 50%.

As to `CNC(=O)c1cc(-c2ccc3cnc(CNC(=O)c4ccc5c(c4)[C@](C)(C#N)COC5)cc3n2)ccn1` [Compound 450], in test [1], the “BRM Max % Inhibition” value is 96% and the IC50 lay in the range of 0.1 to 0.5 µM. For the same compound, in test [2], the IC50 was in the range of 500 to 1000 nM and the Emax was 73%.

Regarding `C[C@@]1(C#N)COCc2ccc(C(=O)NCc3cc4nc(-c5ccncc5)ccc4cn3)cc21` [Compound 451], in test [1], the “BRM Max % Inhibition” value is 93% and the IC50 is 0.1 to 0.5 µM. In addition, in test [2], the 50% inhibitory concentration (IC50) was in the range of 500 to 1000 nM and the Emax came to 58%.

For the compound `Cn1ccc2ccc(-c3ccc4cnc(CNC(=O)c5ccc6c(c5)[C@](C)(C#N)COC6)cc4n3)cc2c1=O` [Compound 452], in test [1], the “BRM Max % Inhibition” value was found to be 97% and the IC50 is less than 0.1 µM. In test [2], the IC50 was 100 to 500 nM and the Emax was 98%.

`Cn1ncc2c1CCN(c1ccc3cnc(CNC(=O)c4ccc5c(c4)[C@](C)(C#N)COC5)cc3n1)C2` [Compound 453]: in test [1], the “BRM Max % Inhibition” value was found to be 91% and the half-inhibitory concentration (IC50) was 0.1 to 0.5 µM. In test [2], the IC50 fell in the range of 500 to 1000 nM and the Emax was found to be 61%.

With `COc1nn(C)cc1-c1ccc2cnc(CNC(=O)c3ccc4c(c3)[C@](C)(C#N)COC4)cc2n1` [Compound 454], in test [1], the “BRM Max % Inhibition” value is reported as 97% and the IC50 is less than 0.1 µM. In test [2], the IC50 is 100 to 500 nM and the Emax amounted to 88%.

For `Cn1cc2c(n1)CCN(c1ccc3cnc(CNC(=O)c4ccc5c(c4)[C@](C)(C#N)COC5)cc3n1)C2` [Compound 455], in test [1], the “BRM Max % Inhibition” value amounted to 94% and the IC50 lay in the range of 0.1 to 0.5 µM. Also, in test [2], the IC50 was 500 to 1000 nM and the Emax came out at 75%.

Take `C[C@@]1(C#N)COCc2ccc(C(=O)NCc3cc4nc(-c5ccc(N6CCC6)nc5)ccc4cn3)cc21` [Compound 456]: in test [1], the “BRM Max % Inhibition” value is reported as 95% and the IC50 lay within 0.1 to 0.5 µM. Besides, in test [2], the IC50 was in the range of 500 to 1000 nM and the Emax came to 80%.
